In patent publication US9499495B2, “Quinazolines and azaquinazolines as dual inhibitors of RAS/RAF/MEK/ERK and PI3K/AKT/PTEN/mTOR pathways” (Asana Biosciences, LLC, priority 2013, dated 2016):

Columns and labels:
Type in all cases: cell-based
Conditions in all cases: Homo sapiens, 3 h treatment
pS6RP in RKO cells = assay: In Cell Western (ICW) assay, pS6RP in RKO cells
Protocol: (§1) Cell lines A375, A2058 and RKO obtained from the ATCC as provided above, were grown, and after attaining ˜80% confluency were trypsinized, centrifuged and resuspended in fresh media. The cells were seeded at the specified density (20,000 to 50,000) in a 96-well format black-well clear bottom plate (Corning) and incubated overnight at 37° C. in a 5% CO2 incubator. The next day, compound dilutions of test compounds were prepared in 100% DMSO followed by dilutions in respective media. Treatment of test compounds was performed for 3 h at 37° C. in 5% CO2 incubator. Following 3 h drug treatment, the conditional media was discarded and the cells were washed once with cPBS (PBS containing 0.1% magnesium chloride hexahydrate and 0.1% anhydrous calcium chloride) and fixed with 4% paraformaldehyde in cPBS for 1 h at rt. After fixing, the cells were given three washes using cPBST (cPBS containing 0.1% Triton™ X-100 reagent) and then blocked using blocking solution (5% skimmed milk powder or 5% BSA prepared in cPBST) for 2 h at rt with shaking at 300 rpm. The cells were again washed thrice with cPBST and incubated with primary antibody phospho-p44/42 MAPK(Erk1/2)(Thr202/204) antibody (Cell Signaling, Catalog # 9101L), phospho S6 ribosomal protein (Cell Signaling, Catalog #4858L), phospho AKT (Thr 308) (Cell Signaling, Catalog #9275) or phospho AKT (Ser 473) (Cell Signaling, Catalog #4060L) in specified dilutions (1:500-1:2500), prepared in respective blocking solutions, in a racker overnight at 4° C. The next day, the cells were washed with 1× Delfia® wash buffer (4×1 wash) and incubated with secondary antibody (Delfia®-Eu-N1 labeled anti-rabbit antibody; PerkinElmer, Catalog #AD0105; dilutions: 1:2000 to 1:6000 in Delfia® assay buffer (PerkinElmer, Catalog #1244-111)) for 2 h at rt in the dark at 300 rpm. The cells were then given four washes with 1× Delfia® wash buffer and incubated with Wallac Delfia® Enhancement solution (100 μL; PerkinElmer, Catalog #1244-105) for 20 min at rt in the dark at 300 rpm. The fluorescence emission was then read at 615 nm with an excitation wavelength of 340 nm using a Victor V5 Fluorometer (Perkin Elmer, US). The cells were then washed once with 1×cPBS and incubated with 100 μL of 0.5 mg/mL of Hoechst 33258 dye prepared in cPBS and read at 460 nm with 355 nm excitation, thereby evaluating the correction factor.
(§2) The % inhibition for the test compounds of formula (I) (new chemical entities (NCEs)) was calculated keeping DMSO control as 0% and the IC50 values were determined using sigmoidal dose response curve fit in GraphPad Prism® v5 software.

pERK in RKO cells = assay: In Cell Western (ICW) assay, pERK in RKO cells
Protocol: as §1, §2

pAKT (T308) in RKO cells = assay: In Cell Western (ICW) assay, pAKT-T308 in RKO cells
Protocol: as §1, §2

Row | IC50 (pS6RP in RKO cells) | IC50 (pERK in RKO cells) | IC50 (pAKT (T308) in RKO cells) | Structure (SMILES)
1 | 100 to 1000 nM | – | – | COc1cc2nc(-c3cnc(N)nc3)nc(N3CCOCC3)c2cc1-c1cccc(NS(=O)(=O)CCCF)c1F [Example 11, N-(3-(2-(2-aminopyrimidin-5-yl)-7-methoxy-4-morpholinoquinazolin-6-yl)-2-fluorophenyl)-3-fluoropropane-1-sulfonamide]
2 | 100 to 1000 nM | 1 to 100 nM | – | COc1cc(-c2cccc(NS(=O)(=O)CCCF)c2F)cc2c(N3CCOC[C@H]3C)nc(-c3cnc(N)nc3)nc12 [Example 43, (R)-N-(3-(2-(2-aminopyrimidin-5-yl)-8-methoxy-4-(3-methylmorpholino)quinazolin-6-yl)-2-fluorophenyl)-3-fluoropropane-1-sulfonamide]
3 | 100 to 1000 nM | – | 100 to 1000 nM | COc1cc(-c2c(F)ccc(NS(=O)(=O)CCCF)c2F)cc2c(N3CCOCC3)nc(-c3ccc(N)nc3)nc12 [Example 79, N-(3-(2-(6-aminopyridin-3-yl)-8-methoxy-4-morpholinoquinazolin-6-yl)-2,4-difluorophenyl)-3-fluoropropane-1-sulfonamide]
4 | 100 to 1000 nM | – | 100 to 1000 nM | Nc1ncc(-c2nc(N3CCOCC3)c3nc(-c4cccc(NS(=O)(=O)CCCF)c4F)ccc3n2)cn1 [Example 87, N-(3-(2-(2-aminopyrimidin-5-yl)-4-morpholinopyrido[3,2-d]pyrimidin-6-yl)-2-fluorophenyl)-3-fluoropropane-1-sulfonamide]
5 | 100 to 1000 nM | 100 to 1000 nM | 100 to 1000 nM | Nc1ccc(-c2nc(N3CCOCC3)c3nc(-c4cccc(NS(=O)(=O)CCCF)c4F)ccc3n2)cn1 [Example 88, N-(3-(2-(6-aminopyridin-3-yl)-4-morpholinopyrido[3,2-d]pyrimidin-6-yl)-2-fluorophenyl)-3-fluoropropane-1-sulfonamide]
6 | – | 100 to 1000 nM | 1000 to 10000 nM | Nc1ccc(-c2nc(N3CCOCC3)c3nc(-c4cccc(NS(=O)(=O)c5cc(F)ccc5F)c4F)ccc3n2)cn1 [Example 92, N-(3-(2-(6-aminopyridin-3-yl)-4-morpholinopyrido[3,2-d]pyrimidin-6-yl)-2-fluorophenyl)-2,5-difluorobenzenesulfonamide]
7 | – | – | 1000 to 10000 nM | Nc1ncc(-c2nc(N3CCOCC3)c3nc(-c4cccc(NS(=O)(=O)c5cc(F)ccc5F)c4F)ccc3n2)cn1 [Example 93, N-(3-(2-(2-aminopyrimidin 5-yl)-4-morpholinopyrido[3,2-d]pyrimidin-6-yl)-2-fluorophenyl)-2,5-difluorobenzenesulfonamide]
8 | 100 to 1000 nM | 1 to 100 nM | 100 to 1000 nM | Nc1cc(C(F)(F)F)c(-c2nc(N3CCOCC3)c3nc(-c4cccc(NS(=O)(=O)CCCF)c4F)ccc3n2)cn1 [Example 94, N-(3-(2-(6-amino-4-(trifluoromethyl)pyridin-3-yl)-4-morpholinopyrido[3,2-d]pyrimidin-6-yl)-2-fluorophenyl)-3-fluoropropane-1-sulfonamide]
9 | 100 to 1000 nM | 1 to 100 nM | – | C[C@@H]1COCCN1c1nc(-c2ccc(N)nc2)nc2ccc(-c3cccc(NS(=O)(=O)CCCF)c3F)nc12 [Example 96, (R)-N-(3-(2-(6-aminopyridin-3-yl)-4-(3-methylmorpholino)pyrido[3,2-d]pyrimidin-6-yl)-2-fluorophenyl)-3-fluoropropane-1-sulfonamide]
10 | 100 to 1000 nM | – | – | C[C@@H]1COCCN1c1nc(-c2cnc(N)nc2)nc2ccc(-c3cccc(NS(=O)(=O)CCCF)c3F)nc12 [Example 97, (R)-N-(3-(2-(2-aminopyrimidin-5-yl)-4-(3-methylmorpholino)pyrido[3,2-d]pyrimidin-6-yl)-2-fluorophenyl)-3-fluoropropane-1-sulfonamide]
11 | 100 to 1000 nM | 1 to 100 nM | – | O=S(=O)(CCCF)Nc1cccc(-c2ccc3nc(-c4ccc(NCCO)nc4)nc(N4CCOCC4)c3n2)c1F [Example 99, 3-fluoro-N-(2-fluoro-3-(2-(6-((2-hydroxyethyl)amino)pyridin-3-yl)-4-morpholinopyrido[3,2-d]pyrimidin-6-yl)phenyl)propane-1-sulfonamide]
12 | 1 to 100 nM | 100 to 1000 nM | 100 to 1000 nM | Cc1cc(N)ncc1-c1nc(N2CCOCC2)c2nc(-c3cccc(NS(=O)(=O)CCCF)c3F)ccc2n1 [Example 101, N-(3-(2-(6-amino-4-methylpyrtdin-3-yl)-4-morpholinopyrldo[3,2-d]pyrimidin-6-yl)-2-fluorophenyl)-3-fluoropropane-1-sulfonamide]
13 | 100 to 1000 nM | 100 to 1000 nM | – | Nc1cc(F)c(-c2nc(N3CCOCC3)c3nc(-c4cccc(NS(=O)(=O)CCCF)c4F)ccc3n2)cn1 [Example 102, N-(3-(2-(6-amino-4-fluoropyridin-3-yl)-4-morpholinopyrido[3,2-d]pyrimidin-6-yl)-2-fluorophenyl)-3-fluoropropane-1-sulfonamide]
14 | – | 100 to 1000 nM | 1000 to 10000 nM | C[C@H]1COCCN1c1nc(-c2cnc(N)cc2C(F)(F)F)nc2ccc(-c3cccc(NS(=O)(=O)CCCF)c3F)nc12 [Example 108, (S)-N-(3-(2-(6-amino-4-(trifluoromethyl)pyrldin-3-yl)-4-(3-methylmorpholino)pyrido[3,2-d]pyrimidin-6-yl)-2-fluorophenyl)-3-fluoropropane-1-sulfonamide]
15 | – | – | 1000 to 10000 nM | CNc1ccc(-c2nc(N3CCOCC3)c3nc(-c4cccc(NS(=O)(=O)CCCF)c4F)ccc3n2)cn1 [Example 113, 3-fluoro-N-(2-fluoro-3-(2-(6-(methylamino)pyridin-3-yl)-4-morpholinopyrido[3,2-d]pyrimidin-6-yl)phenyl)propane-1-sulfonamide]
16 | 1 to 100 nM | 1 to 100 nM | – | COc1cc(-c2cccc(NS(=O)(=O)CCCF)c2F)cc2c(N3CCOC[C@H]3C)nc(-c3cnc(N)c(F)c3)nc12 [Example 134, (R)-N-(3-(2-(6-amino-5-fluoropyridin-3-yl)-8-methoxy-4-(3-methylmorpholino)quinazolin-6-yl)-2-fluorophenyl)-3-fluoropropane-1-sulfonamide]
17 | 100 to 1000 nM | 1 to 100 nM | – | COc1cc(-c2cccc(NS(=O)(=O)CCCF)c2F)cc2c(N3CCOC[C@H]3C)nc(-c3cnc(N)cc3F)nc12 [Example 135, (R)-N-(3-(2-(6-amino-4-fluoropyridin-3-yl)-8-methoxy-4-(3-methylmorpholino)quinazolin-6-yl)-2-fluorophenyl)-3-fluoropropane-1-sulfonamide]
